Data reported in the NIST ThermoML archive (doi:10.1021/je0500633).
± gives the expanded uncertainty stated by the source.

How the values were obtained:
[1] = xn = mol fraction of the nth substance listed; settings: 101.33 kPa, Liquid; for viscosity: Falling or rolling sphere viscometry
[2] = 101.33 kPa, Liquid; for viscosity: Falling or rolling sphere viscometry

SMILES | viscosity ([1]; 293.15 K, x1 = 1) [mPa·s] | mass density ([1]; 293.15 K, x1 = 1) [kg/m3] | viscosity ([1]; 303.15 K, x1 = 1) [mPa·s] | mass density ([1]; 303.15 K, x1 = 1) [kg/m3] | viscosity ([1]; 313.15 K, x1 = 1) [mPa·s] | mass density ([1]; 313.15 K, x1 = 1) [kg/m3] | viscosity ([1]; 293.15 K, x2 = 0) [mPa·s] | mass density ([1]; 293.15 K, x2 = 0) [kg/m3] | viscosity ([1]; 303.15 K, x2 = 0) [mPa·s] | mass density ([1]; 303.15 K, x2 = 0) [kg/m3] | viscosity ([1]; 313.15 K, x2 = 0) [mPa·s] | mass density ([1]; 313.15 K, x2 = 0) [kg/m3] | further results
CCOC(=O)C(C)CC (configuration not stated) [ethyl 2-methylbutanoate] + CCO | 0.831 ± 0.008 | 869.73 ± 0.57 | 0.723 ± 0.007 | 861.48 ± 0.58 | 0.635 ± 0.006 | 853.41 ± 0.58 | – | – | – | – | – | – | –
CCCCCC(=O)OCC [ethyl hexanoate] + CCO | 0.816 ± 0.008 | 879.01 ± 0.58 | 0.704 ± 0.007 | 869.31 ± 0.57 | 0.614 ± 0.006 | 863.28 ± 0.56 | – | – | – | – | – | – | –
CCOC(=O)C(C)CC (configuration not stated) [ethyl 2-methylbutanoate] + CCCO | 0.831 ± 0.008 | 869.73 ± 0.57 | 0.723 ± 0.007 | 861.48 ± 0.58 | 0.635 ± 0.006 | 853.41 ± 0.58 | – | – | – | – | – | – | –
CCCCCC(=O)OCC [ethyl hexanoate] + CO | 0.816 ± 0.008 | 879.01 ± 0.58 | 0.704 ± 0.007 | 869.31 ± 0.57 | 0.614 ± 0.006 | 863.28 ± 0.56 | – | – | – | – | – | – | –
CO [methanol] | – | – | – | – | – | – | – | – | – | – | – | – | mass density ([2]; 293.15 K): 791.08 ± 0.63 kg/m3; viscosity ([2]; 293.15 K): 0.577 ± 0.005 mPa·s; mass density ([2]; 303.15 K): 781.95 ± 0.64 kg/m3; viscosity ([2]; 303.15 K): 0.512 ± 0.005 mPa·s; mass density ([2]; 313.15 K): 772.01 ± 0.65 kg/m3; viscosity ([2]; 313.15 K): 0.447 ± 0.004 mPa·s
CCOC(=O)C(C)CC (configuration not stated) [ethyl 2-methylbutanoate] | – | – | – | – | – | – | – | – | – | – | – | – | mass density ([2]; 293.15 K): 869.73 ± 0.57 kg/m3; viscosity ([2]; 293.15 K): 0.831 ± 0.008 mPa·s; mass density ([2]; 303.15 K): 861.48 ± 0.58 kg/m3; viscosity ([2]; 303.15 K): 0.723 ± 0.007 mPa·s; mass density ([2]; 313.15 K): 853.41 ± 0.58 kg/m3; viscosity ([2]; 313.15 K): 0.635 ± 0.006 mPa·s
CCCO [propan-1-ol] | – | – | – | – | – | – | – | – | – | – | – | – | mass density ([2]; 293.15 K): 803.64 ± 0.61 kg/m3; viscosity ([2]; 293.15 K): 2.188 ± 0.021 mPa·s; mass density ([2]; 303.15 K): 795.48 ± 0.62 kg/m3; viscosity ([2]; 303.15 K): 1.713 ± 0.016 mPa·s; mass density ([2]; 313.15 K): 787.02 ± 0.63 kg/m3; viscosity ([2]; 313.15 K): 1.378 ± 0.013 mPa·s
CCO [ethanol] + CCOC(=O)C(C)CC | – | – | – | – | – | – | 1.16 ± 0.011 | 788.24 ± 0.62 | 0.968 ± 0.009 | 780.73 ± 0.63 | 0.81 ± 0.008 | 771.98 ± 0.64 | –
CCOC(=O)C(C)CC (configuration not stated) [ethyl 2-methylbutanoate] + CO | 0.831 ± 0.008 | 869.73 ± 0.57 | 0.723 ± 0.007 | 861.48 ± 0.58 | 0.635 ± 0.006 | 853.41 ± 0.58 | – | – | – | – | – | – | –
CCCCCC(=O)OCC [ethyl hexanoate] | – | – | – | – | – | – | – | – | – | – | – | – | mass density ([2]; 293.15 K): 879.01 ± 4 kg/m3; viscosity ([2]; 293.15 K): 0.816 ± 0.008 mPa·s; mass density ([2]; 303.15 K): 869.31 ± 4 kg/m3; viscosity ([2]; 303.15 K): 0.704 ± 0.007 mPa·s; mass density ([2]; 313.15 K): 863.28 ± 4 kg/m3; viscosity ([2]; 313.15 K): 0.614 ± 0.006 mPa·s
CCO [ethanol] | – | – | – | – | – | – | – | – | – | – | – | – | mass density ([2]; 293.15 K): 788.24 ± 0.62 kg/m3; viscosity ([2]; 293.15 K): 1.16 ± 0.011 mPa·s; mass density ([2]; 303.15 K): 780.73 ± 0.63 kg/m3; viscosity ([2]; 303.15 K): 0.968 ± 0.009 mPa·s; mass density ([2]; 313.15 K): 771.98 ± 0.64 kg/m3; viscosity ([2]; 313.15 K): 0.81 ± 0.008 mPa·s
CCCCCC(=O)OCC [ethyl hexanoate] + CCCO | 0.816 ± 0.008 | 879.01 ± 0.58 | 0.704 ± 0.007 | 869.31 ± 0.57 | 0.614 ± 0.006 | 863.28 ± 0.56 | – | – | – | – | – | – | –
CCO [ethanol] + CCCCCC(=O)OCC | – | – | – | – | – | – | 1.16 ± 0.011 | 788.24 ± 0.62 | 0.968 ± 0.009 | 780.73 ± 0.63 | 0.81 ± 0.008 | 771.98 ± 0.64 | –

More lines, main results first:

viscosity ([1]; 293.15 K, x1 = 1) [mPa·s] | mass density ([1]; 293.15 K, x1 = 1) [kg/m3] | viscosity ([1]; 303.15 K, x1 = 1) [mPa·s] | mass density ([1]; 303.15 K, x1 = 1) [kg/m3] | viscosity ([1]; 313.15 K, x1 = 1) [mPa·s] | mass density ([1]; 313.15 K, x1 = 1) [kg/m3] | viscosity ([1]; 293.15 K, x2 = 0) [mPa·s] | mass density ([1]; 293.15 K, x2 = 0) [kg/m3] | viscosity ([1]; 303.15 K, x2 = 0) [mPa·s] | mass density ([1]; 303.15 K, x2 = 0) [kg/m3] | viscosity ([1]; 313.15 K, x2 = 0) [mPa·s] | mass density ([1]; 313.15 K, x2 = 0) [kg/m3] | SMILES | further results
– | – | – | – | – | – | 2.188 ± 0.021 | 803.64 ± 0.61 | 1.713 ± 0.016 | 795.48 ± 0.62 | 1.378 ± 0.013 | 787.02 ± 0.63 | CCCO [propan-1-ol] + CCCCCC(=O)OCC | –
– | – | – | – | – | – | 0.577 ± 0.005 | 791.08 ± 0.63 | 0.512 ± 0.005 | 781.95 ± 0.64 | 0.447 ± 0.004 | 772.01 ± 0.65 | CO [methanol] + CCOC(=O)C(C)CC | –
– | – | – | – | – | – | 0.577 ± 0.005 | 791.08 ± 0.63 | 0.512 ± 0.005 | 781.95 ± 0.64 | 0.447 ± 0.004 | 772.01 ± 0.65 | CO [methanol] + CCCCCC(=O)OCC | –
– | – | – | – | – | – | 2.188 ± 0.021 | 803.64 ± 0.61 | 1.713 ± 0.016 | 795.48 ± 0.62 | 1.378 ± 0.013 | 787.02 ± 0.63 | CCCO [propan-1-ol] + CCOC(=O)C(C)CC | –
